Assays:
[1] = test system: UTP-stimulated Ca2+ response in HT-29 cells; assay: Ca FLIPR TETRA assay, ANTAGONIST mode, stimulation with 0.6 μM UTP; type: cell-based, human; details: Homo sapiens, HT-29 cells
Summary of the method: (§1)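 Cells plated overnight at 37 °C, 5% CO2 in 1% FBS medium; dye loading 45 min at 37 °C then 15 min r.t.; compound added from DMSO/HBSS dilution; first read for intrinsic Ca2+ activation; 30 min r.t. incubation; antagonist read after addition of the fixed activator (8 μM SLIGKV, 1 U/mL thrombin, 3.1 U/mL trypsin or 0.6 μM UTP).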

[2] = molecular target: T1, PAR2 (HT-29 cells, trypsin activation) (Homo sapiens, UniProt P55085); assay: Ca FLIPR TETRA assay, ANTAGONIST mode, stimulation with 3.1 U/mL trypsin; type: cell-based; details: HT-29 cells
T1 construct: host or cells: HT-29 cells
T1 sequence (P55085 26-397): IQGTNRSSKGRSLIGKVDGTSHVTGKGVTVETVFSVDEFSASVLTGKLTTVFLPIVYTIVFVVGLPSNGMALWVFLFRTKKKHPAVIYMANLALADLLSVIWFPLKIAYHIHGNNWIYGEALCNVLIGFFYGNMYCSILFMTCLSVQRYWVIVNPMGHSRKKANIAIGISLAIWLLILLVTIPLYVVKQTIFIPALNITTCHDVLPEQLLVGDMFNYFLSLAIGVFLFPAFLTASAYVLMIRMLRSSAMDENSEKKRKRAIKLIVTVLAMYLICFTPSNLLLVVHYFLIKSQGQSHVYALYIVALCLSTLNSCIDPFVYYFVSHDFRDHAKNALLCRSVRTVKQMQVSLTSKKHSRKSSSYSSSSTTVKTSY
Summary of the method: as §1

[3] = In vivo rat pharmacokinetics (intravenous and oral); details: plasma; for clearance: intravenous 0.5 to 1 mg/kg, read-out: Clp; for Vd: intravenous, read-out: Vss; for bioavailability: oral by gavage; for half-life: read-out: T ½ (converted)
Method: Example 61: Protocol for Testing PAR2 Compounds In Vivo Rat Pharmacokinetics Experiments
Compounds delivered by intravenous route were formulated using a solution formulation consisting of 5% N-methylpyrrolidone 10% Vitamin E-TPGS and 85% water (v/v/) or a solution formulation consisting of 25% N-methylpyrrolidone 35% polyethylene glycol 400 and 40% water (v/v/). Intravenous formulations were administered by a bolus injection (over approximately 10 seconds) using a hypodermic needle attaches to a syringe (tail vein). The dose volume was varied from 1 to 2 mL/kg and the dose was varied from 0.5 to 1 mg/kg. Compounds delivered orally were formulated as a solution formulation consisting of 5% N-methylpyrrolidone 10% Vitamin E-TPGS and 85% water (v/v/) or as fine suspension using a cellulose derivative suspending agent with or without the addition of a wetting agent/surfactant. Milling of large particles was performed as needed to reduce particle size using focused electroacoustic milling, homogenization or low energy media milling. A spray-dried solid dispersion was prepared for key compounds using 1:1 combination with cellulose derivatives. Test compounds were administered orally by gavage using a gavage plastic needle attached to a syringe. The dose volume was varied from 5 to 10 mL/kg and the dose was varied from 1 to 600 mg/kg.
Rats were bled by venipuncture (jugular vein) and the samples were collected into tubes containing K3EDTA. The tubes were placed on wet ice until processed. The samples were centrifuged for approximately 10 minutes (at approximately 4° C.) within approximately 30 minutes of collection to prepare plasma or diluted in citrate buffer (1:3) and stored frozen (approximately −30° C.). Thawed plasma or whole blood samples were extracted by protein precipitation using an organic solvent followed by centrifugation. The supernatants were separated by high-performance liquid chromatography coupled to mass spectrometry detection. A calibration curve was prepared using reference standard compounds spiked into either blank plasma or whole blood matrices and extracted similarly to unknown samples. Pharmacokinetic parameters were calculated using non-compartmental analysis.

[4] = test system: Thrombin-stimulated Ca2+ response in HT-29 cells; assay: Ca FLIPR TETRA assay, ANTAGONIST mode, stimulation with 1 U/mL Thrombin; type: cell-based, human; details: Homo sapiens, HT-29 cells
Summary of the method: as §1

[5] = molecular target: T2, PAR2 (HT-29 cells, SLIGKV activation) (Homo sapiens, UniProt P55085); assay: Ca FLIPR TETRA assay, ANTAGONIST mode, stimulation with 8 μM SLIGKV; type: cell-based; details: HT-29 cells
T2 construct: host or cells: HT-29 cells
T2 sequence (P55085 26-397): T1 sequence (P55085 26-397)
Summary of the method: as §1

[6] = stimulation with 3.1 U/mL trypsin
[7] = stimulation with 1 U/mL Thrombin
[8] = antagonist mode, stimulation with 0.6 μM UTP
[9] = antagonist mode, stimulation with 3.1 U/mL trypsin
[10] = antagonist mode, stimulation with 1 U/mL Thrombin
[11] = antagonist mode, stimulation with 8 μM SLIGKV
[12] = antagonist mode, 3.1 U/mL trypsin
[13] = antagonist mode, 1 U/mL Thrombin

| clearance [3] [mL/min/kg] | Vd [3] [L/kg] | bioavailability [3] [%] | half-life [3] [h] | IC50 ([1]; antagonist mode, 0.6 μM UTP) [nM] | IC50 [2, 12] [nM] | IC50 [4, 13] [nM] | IC50 ([5]; antagonist mode, 8 μM SLIGKV) [nM] | SMILES | also measured |
| --- | --- | --- | --- | --- | --- | --- | --- | --- | --- |
|  |  |  |  | > 1000 | 128 | > 1000 | 28 | CC(C)(C)c1cc(-c2ccc(F)cc2)nn2cc(C(=O)N3CCN(C(=O)C4(C(=O)O)CC4)CC3(C)C)nc12 [Compound I-562] |  |
| 61.7 | 1.19 | 15 | 0.413 | > 1000 | 0.4 | > 1000 | 0.3 | CC(C)(C)c1cc(-c2ccc(F)cc2)nn2cc(C(=O)N3CCN(C(=O)[C@H]4CC[C@@](C)(C(=O)O)CC4)CC3(C)C)nc12 [Compound I-563, (1S,4S)-4-(4-(8-(tert-butyl)-6-(4-fluorophenyl)imidazo[1,2-b]pyridazine-2-carbonyl)-3,3-dimethylpiperazine-1-carbonyl)-1-methylcyclohexane-1-carboxylic acid] |  |
|  |  |  |  | > 1000 | 193 | > 1000 | 125 | CC(C)(C)c1cc(-c2ccc(F)cc2)nn2cc(C(=O)N3CN(C(C)(C)C)C(=O)C3(C)C)nc12 [Compound I-564] |  |
|  |  |  |  | > 1000 | 42 | > 1000 | 43 | CC(C)(C)c1cc(-c2ccc(F)cc2)nn2cc(C(=O)N3CN(Cc4ccccc4)C(=O)C3(C)C)nc12 [Compound I-565] |  |
|  |  |  |  | > 1000 | 5.1 | > 1000 | 3 | CC(C)(C)c1cc(-c2ccc(F)cc2)nn2cc(C(=O)N3CCN(C(=O)CCC#N)CC3(C)C)nc12 [Compound I-566] |  |
|  |  |  |  | > 1000 | 49.8 | > 1000 | 23 | CC1(C)C(=O)NCCN1C(=O)c1cn2nc(-c3ccc(F)cc3)cc(-c3ccsc3)c2n1 [Compound I-567, 4-(6-(4-fluorophenyl)-8-(thiophen-3-yl)imidazo[1,2-b]pyridazine-2-carbonyl)-3,3-dimethylpiperazin-2-one] |  |
|  |  |  |  | > 1000 | 620 | > 1000 | 520 | CC1(C)C(=O)NCCN1C(=O)c1cn2nc(-c3ccc(F)cc3)cc(-c3cccnc3)c2n1 [Compound I-568] |  |
|  |  |  |  | > 1000 | 640 | > 1000 | 395 | CC1(C)C(=O)NCCN1C(=O)c1cn2nc(-c3ccc(F)cc3)cc(-c3ccncc3)c2n1 [Compound I-569] |  |
|  |  |  |  | > 1000 | 2.2 | > 1000 | 1.6 | CC(C)(C)c1cc(-c2ccc(Cl)cc2)nn2cc(C(=O)N3CCN(C(=O)[C@H]4C[C@H](C(=O)O)C4)CC3(C)C)nc12 [Compound I-570] |  |
|  |  |  |  | > 1000 | 3.3 | 980 | 1.1 | CC(C)(CC(=O)O)C(=O)N1CCN(C(=O)c2cn3nc(-c4ccc(F)cc4)cc(C(C)(C)C)c3n2)C(C)(C)C1 [Compound I-571] |  |

More lines, now with the values behind:

| SMILES | clearance [3] [mL/min/kg] | Vd [3] [L/kg] | bioavailability [3] [%] | half-life [3] [h] | IC50 ([1]; antagonist mode, 0.6 μM UTP) [nM] | IC50 [2, 12] [nM] | IC50 [4, 13] [nM] | IC50 ([5]; antagonist mode, 8 μM SLIGKV) [nM] | also measured |
| --- | --- | --- | --- | --- | --- | --- | --- | --- | --- |
| Cc1cc(-c2ccc(F)cc2)nn2cc(C(=O)N3CCN(C(=O)[C@H](O)CC(C)(C)C)[C@@H](C)C3)nc12 [Compound I-9, (R)-1-((S)-4-(6-(4-Fluorophenyl)-8-methylimidazo[1,2-b]pyridazine-2-carbonyl)-2-methylpiperazin-1-yl)-2-hydroxy-4,4-dimethylpentan-1-one] | 21.7 | 1.4 | 57 | 1.2 |  |  |  |  | IC50 ([1]; stimulation with 0.6 μM UTP): > 5000 nM; IC50 [2, 6]: 110 nM; IC50 [4, 7]: > 5000 nM; IC50 ([5]; stimulation with 8 μM SLIGKV): 9 nM |
| CC1(C)C(=O)NCCN1C(=O)c1cn2nc(-c3ccc(F)cc3)cc(C3CCOCC3)c2n1 [Compound I-29, 4-[6-(4-fluorophenyl)-8-tetrahydropyran-4-yl-imidazo[1,2-b]pyridazine-2-carbonyl]-3,3-dimethyl-piperazin-2-one] | 3.6 | 1.8 | 71 | 6.7 |  |  |  |  | IC50 ([1]; stimulation with 0.6 μM UTP): > 50000 nM; IC50 [2, 6]: 390 nM; IC50 [4, 7]: > 50000 nM; IC50 ([5]; stimulation with 8 μM SLIGKV): 240 nM |
| CC(C)(O)C(=O)N1CCN(C(=O)c2cn3nc(-c4ccc(F)cc4)cc(C4(C)CC4)c3n2)C(C)(C)C1 [Compound I-32, 1-[4-[6-(4-fluorophenyl)-8-(1-methylcyclopropyl)imidazo[1,2-b]pyridazine-2-carbonyl]-3,3-dimethyl-piperazin-1-yl]-2-hydroxy-2-methyl-propan-1-one] | 29.3 | 2.2 | 39 | 1.4 |  |  |  |  | IC50 ([1]; stimulation with 0.6 μM UTP): > 50000 nM; IC50 [2, 6]: 21 nM; IC50 [4, 7]: > 50000 nM; IC50 ([5]; stimulation with 8 μM SLIGKV): 17 nM |
| CC(C)c1cc(-c2ccc(C(F)(F)F)c(F)c2)nn2cc(C(=O)N3CCN(C(=O)C(C)(C)O)CC3(C)C)nc12 [Compound I-252] | 4.17 | 1.49 | 92 | 5.85 |  |  |  |  | IC50 [1, 8]: > 1000 nM; IC50 [2, 9]: 6.7 nM; IC50 [4, 10]: > 1000 nM; IC50 [5, 11]: 2.6 nM |
| Cc1cc(C(=O)N2CCN(C(=O)c3cn4nc(-c5ccc(F)cc5)cc(C(C)C)c4n3)C(C)(C)C2)[nH]n1 [Compound I-303] | 7.15 | 2.04 | 69 | 5.36 |  |  |  |  | IC50 [1, 8]: > 1000 nM; IC50 [2, 9]: 2 nM; IC50 [4, 10]: > 1000 nM; IC50 [5, 11]: 2 nM |
| CC(C)(C)c1cc(C2CCC(F)(F)CC2)nn2cc(C(=O)N3CCN(C(=O)[C@H]4C[C@@](C)(O)C4)CC3(C)C)nc12 [Compound I-452, [8-tert-butyl-6-(4,4-difluorocyclohexyl)imidazo[1,2-b]pyridazin-2-yl]-[4-(3-hydroxy-3-methyl-cyclobutanecarbonyl)-2,2-dimethyl-piperazin-1-yl]methanone] | 7.24 | 1.96 | 67 | 3.62 |  |  |  |  | IC50 [1, 8]: 11600 nM; IC50 [2, 9]: 6.2 nM; IC50 [4, 10]: 7850 nM; IC50 [5, 11]: 3.3 nM |
| CC(C)(C)c1cc(-c2ccc(F)cc2)nn2cc(C(=O)N3CCN(C(=O)/C=C/C(=O)O)CC3(C)C)nc12 [Compound I-558] |  |  |  |  | > 1000 | 43.5 | > 1000 | 18.5 |  |
| CC(C)(C)c1cc(-c2ccc(F)cc2)nn2cc(C(=O)N3CCN(C(=O)C45CC(C(=O)O)(C4)C5)CC3(C)C)nc12 [Compound I-559] |  |  |  |  | > 1000 | 51.5 | > 1000 | 20 |  |
| CC(C)(C)c1cc(-c2ccc(F)cc2)nn2cc(C(=O)N3CCN(C(=O)CCC(=O)O)CC3(C)C)nc12 [Compound I-560, 4-(4-(8-(tert-butyl)-6-(4-fluorophenyl)imidazo[1,2-b]pyridazine-2-carbonyl)-3,3-dimethylpiperazin-1-yl)-4-oxobutanoic acid] |  |  |  |  | > 1000 | 9.3 | > 1000 | 4.9 |  |
| CC(C)(CC(=O)N1CCN(C(=O)c2cn3nc(-c4ccc(F)cc4)cc(C(C)(C)C)c3n2)C(C)(C)C1)C(=O)O [Compound I-561, 4-(4-(8-(tert-butyl)-6-(4-fluorophenyl)imidazo[1,2-b]pyridazine-2-carbonyl)-3,3-dimethylpiperazin-1-yl)-2,2-dimethyl-4-oxobutanoic acid] |  |  |  |  | > 1000 | 0.7 | > 1000 | 0.5 |  |

Reference: US20190119282A1, “IMIDAZOPYRIDAZINES USEFUL AS INHIBITORS OF THE PAR-2 SIGNALING PATHWAY” (Vertex Pharmaceuticals Incorporated, priority 2013, published 2019)
